Laboratory results reported in publication PMC10295794, “Pharmacokinetic Analysis of Zonarol, a Marine Algal Hydroquinone, in Mice Using HPLC with Fluorescence Detection” (Antibiotics, 2023).
Like-named read-outs stand apart in the source and are kept apart here.

Columns and labels:
[1] = cited from earlier work
[2] = cited from earlier work; remark: listed apart in the source
[3] = Plasma concentration of zonarol after oral or intravenous administration in mice (HPLC-FI, non-compartmental analysis); format: in vivo; details: for time within which plasma concentration remained over the LOQ: LOQ 11.1 ng/mL
Method: (§1) HPLC analysis was carried out on a Shimadzu-20A series instrument (Shimadzu, Japan) connected to a fluorescence detector (RF-10A xl, Shimadzu, Japan). The signals from the fluorescence system were transmitted to LC Solution software for the purposes of analyzing and calculating the peak areas. Chromatographic separation was carried out on an RPAQUEOUS-AR-5 (4.6 × 250 mm) column. The HPLC was operated with a gradient mobile phase system consisting of water containing 0.1% formic acid (phase A) and methanol (phase B) at a flow rate of 1 mL/min. The pump was programmed as follows: phase B was maintained at 40% for the first 5 min, increased from 40% to 80% within the next 25 min, maintained at 80% for the next 10 min, increased to 100% for 10 min, and then decreased back to 40% for 10 min (total gradient time: 60 min). A 50 μL sample was injected into the system with the auto-sampler and conditioned at 4 °C, and the column temperature was maintained at 30 °C.
Male ddY mice (8 weeks old, 40 ± 2 g) were purchased from SLC Inc. (Shizuoka, Japan) and were acclimated to laboratory conditions for 1 week before experiment. The mice were housed in an air-conditioned room at 23 ± 2 °C with 12 h/12 h light–dark illumination cycles at a constant humidity (55 ± 10%) with free access to food (MR stock, Nosan, Japan) and tap water. Exsanguination and autopsy were performed under anesthesia with an overdose of isoflurane (Mylan EPD Ltd., Canonsburg, PA, USA). All procedures were reviewed and approved (R3-9 and R4-2) in terms of animal welfare by the Animal Ethics Committee of Tokyo University of Marine Science and Technology.
The mice were fasted for 12 h before the oral administration of zonarol. Blood samples were collected from the mouse tails at 15, 30, 45, 60, 90, 120, 240, and 480 min after the oral administration of 100 mg/kg of zonarol (n = 5).
The mice were not fasted before the intravenous administration of zonarol but were fasted after the test started. Blood samples were collected from the mouse tails, via the caudal veins, at 5, 15, 30, 45, 60, 90, 120, and 240 min after the intravenous administration of 10 mg/kg of zonarol (n = 6).
Blood samples were immediately centrifuged at 9000 rpm for 5 min. After centrifugation, a 20 μL aliquot of plasma was mixed with 80 μL of MeCN for deproteinization. Then, the mixture was centrifuged at 9000 rpm for 5 min, and the supernatant was used for HPLC analysis.
Data were expressed as the mean ± standard deviation (SD) for the in vitro and the animal experiments. The number of the data is described for each experiment. The pharmacokinetic parameters were calculated with Phoenix Winnonlin software (version 8.1) while using a non-compartmental model. The abnormal data were eliminated after being analyzed via a Box-type drawing with SPSS software (SPSS Inc., Chicago, IL, USA).

diet-induced NAFLD = system: diet-induced NAFLD; set-up: method as in PMID 34684455; details: mice, oral 10 mg/kg/day for 2 weeks; cited from earlier work
[4] = Tissue distribution of zonarol after intravenous administration in mice; format: in vivo; details: for concentration at 30 min / concentration at 15 min: mouse, iv, 10 mg/kg; for concentration at 30 min: brain; for concentration at 15 min: 15 min after administration
Method: as §1
Blank tissue homogenates were prepared by collecting the liver, kidney, and brain from normal mice after anesthetization. Blank tissue homogenates were used to determine the specificity of zonarol. In the experimental mice, the livers, kidneys, and brains were collected at 15, 30, 60, 120 min after the intravenous administration, via the caudal veins, of 10 mg/kg of zonarol (n = 7). The tissue with added distilled water (mass/volume = 1:4) was homogenized.
Next, a 50 μL of tissue homogenate was mixed with 200 μL of MeCN for deproteinization. Then, the mixture was centrifuged at 9000 rpm for 5 min, and the supernatant was used for HPLC analysis.

[5] = system: DSS-induced ulcerative colitis; set-up: method as in PMID 25409433; details: mice, oral 10 mg/kg/day for 2 weeks; cited from earlier work
[6] = system: carrageenan-induced paw edema; assay: Carrageenan-induced paw edema in mice after oral bolus zonarol; format: in vivo; details: estimated from current p.o. 100 mg/kg plasma data and earlier 62.5 mg/kg edema result (ref 16)
[7] = Stability of zonarol with mice plasma during HPLC analysis; format: in vitro ADME
Method: as §1
The stability of low, medium, and high concentrations of 20, 80, and 320 ng/mL of zonarol mixed with the plasma of mice was performed under different conditions, including storage at room temperature for 4 h, storage at 37 °C for 4 h, and storage at 4 °C for 12 h and subjection to three freeze–thaw cycles. Next, 20 μL aliquots of low, medium, and high concentration zonarol solutions ([…]) were added to polypropylene tubes with 80 μL of blank plasma. Then, 900 μL of MeCN was added to the mixture, after being incubated under the different conditions described above, for deproteinization. The final nominal concentrations of zonarol were 20, 80, and 320 ng/mL. After deproteinization, the mixtures were centrifuged at […] for 5 min, and the supernatants were used for HPLC analysis. The accuracy of the assay was determined by comparing the nominal concentrations with the corresponding calculated concentrations via linear regression. Every concentration of zonarol was measured three times.

[8] = system: carrageenan-induced paw edema; set-up: method as in PMID 25409433; details: mice, oral bolus 62.5 mg/kg at −0.5 h; edema at 2 and 4 h after carrageenan; cited from earlier work
[9] = male, ddY, mouse, plasma, po, p.o. 100 mg/kg, n = 5, mean ± SD
[10] = storage at 4 °C for 12 h, prepared 20 ng/mL
[11] = storage at 4 °C for 12 h, prepared 80 ng/mL
[12] = storage at 4 °C for 12 h, prepared 320 ng/mL
[13] = storage at 37 °C for 4 h, prepared 20 ng/mL
[14] = storage at 37 °C for 4 h, prepared 80 ng/mL
[15] = storage at 37 °C for 4 h, prepared 320 ng/mL
[16] = storage at RT for 4 h, prepared 20 ng/mL
[17] = storage at RT for 4 h, prepared 80 ng/mL
[18] = storage at RT for 4 h, prepared 320 ng/mL
[19] = three cycles of freeze-thaw, prepared 20 ng/mL
[20] = three cycles of freeze-thaw, prepared 80 ng/mL
[21] = three cycles of freeze-thaw, prepared 320 ng/mL

## O=c1c(O)c(-c2ccc(O)c(O)c2)oc2cc(O)cc(O)c12 [quercetin]
[1]; 0.1%-quercetin-containing diet for 11 weeks
  accumulation in the brain: did not induce the accumulation
[2]; variability depended on gastric contents during ingestion
  absolute bioavailability: 16%

## fucoxanthin
[1]; due to hydrophobic properties
  passage through the BBB: pass through the BBB
[2]
  bioavailability: 0.06%

## C=C1CC[C@@H]2C(C)(C)CCC[C@@]2(C)[C@@H]1Cc1cc(O)ccc1O [zonarol]
[3]; i.v. 10 mg/kg
  time within which plasma concentration remained over the LOQ: ≤ 240 min
[3]; male, ddY, mouse, plasma, iv, i.v. 10 mg/kg, 0 to 240 min, n = 6, mean ± SD, read-out: AUC (AUC0-240) (converted)
  AUC(0-t): 0.608 µg·h/mL
[3]; male, ddY, mouse, plasma, iv, i.v. 10 mg/kg, 5 min
  concentration at 5 min: 0.878 ± 0.371 µg/mL
[3]; male, ddY, mouse, plasma, oral, (p.o. AUC/p.o. dose)/(i.v. AUC/i.v. dose) × 100, p.o. 100 mg/kg, i.v. 10 mg/kg
  bioavailability: 25%
[3]; male, ddY, mouse, plasma, po, p.o. 100 mg/kg, 0 to 480 min, n = 5, mean ± SD, read-out: AUC (AUC0-480) (converted)
  AUC(0-t): 1.52 µg·h/mL
[3]; [9]
  Cmax: 0.723 ± 0.0759 µg/mL
  Tmax: 1.25 h
[3]; p.o. 100 mg/kg
  time within which plasma concentration remained over the LOQ: ≤ 480 min
diet-induced NAFLD
  effect on diet-induced NAFLD: prevented
[4]; i.v. 10 mg/kg bolus, data not shown
  tissue/body weights (g/g) and visual observation of each tissue vs. mice without bolus treatment: did not reflect any marked differences
[4]; bolus i.v. 10 mg/kg BW, 30 min, read-out: maximal distribution of zonarol in the brain
  concentration at 30 min: 2520 ± 1330 ng/g
[4]; i.v. 10 mg/kg, 30 min after administration, n = 7, mean ± SD, read-out: zonarol content in brain (peak)
  concentration at 30 min: 2530 ± 1330 ng/g
[4]; kidney, i.v. 10 mg/kg, n = 7, mean ± SD, read-out: zonarol content in kidney (highest)
  concentration at 15 min: 1910 ± 1800 ng/g
[4]; liver, i.v. 10 mg/kg, n = 7, mean ± SD, read-out: zonarol content in liver (highest)
  concentration at 15 min: 1320 ± 1040 ng/g
[5]
  effect on DSS-induced ulcerative colitis: suppressed
[6]
  plasma zonarol required to induce suppressive effects on edema formations: approximately 300 ng/mL
[7]; all storage conditions and concentrations of Table 2
  accuracy of each group (plasma stability): 90.8–112.9%
[7]; [10]
  Accuracy (detected/prepared × 100): 104.9%
  Zonarol detected in plasma: 21.0 ± 1.33 ng/mL
[7]; [11]
  Accuracy (detected/prepared × 100): 92.3%
  Zonarol detected in plasma: 73.8 ± 1.98 ng/mL
[7]; [12]
  Accuracy (detected/prepared × 100): 104.4%
  Zonarol detected in plasma: 334.2 ± 10.70 ng/mL
[7]; [13]
  Accuracy (detected/prepared × 100): 105.8%
  Zonarol detected in plasma: 21.2 ± 0.33 ng/mL
[7]; [14]
  Accuracy (detected/prepared × 100): 90.8%
  Zonarol detected in plasma: 72.6 ± 0.53 ng/mL
[7]; [15]
  Accuracy (detected/prepared × 100): 95.2%
  Zonarol detected in plasma: 304.6 ± 6.57 ng/mL
[7]; [16]
  Accuracy (detected/prepared × 100): 112.9%
  Zonarol detected in plasma: 22.6 ± 1.24 ng/mL
[7]; [17]
  Accuracy (detected/prepared × 100): 91.2%
  Zonarol detected in plasma: 73.0 ± 1.72 ng/mL
[7]; [18]
  Accuracy (detected/prepared × 100): 97.2%
  Zonarol detected in plasma: 311.1 ± 2.76 ng/mL
[7]; stored at 4 °C
  time zonarol remained stable in plasma: at least 12 h
[7]; stored at RT or 37 °C for 4 h
  change of zonarol content in plasma: did not change
[7]; [19]
  Accuracy (detected/prepared × 100): 107.9%
  Zonarol detected in plasma: 21.6 ± 1.44 ng/mL
[7]; [20]
  Accuracy (detected/prepared × 100): 94.4%
  Zonarol detected in plasma: 75.5 ± 2.38 ng/mL
[7]; [21]
  Accuracy (detected/prepared × 100): 101.7%
  Zonarol detected in plasma: 325.5 ± 4.56 ng/mL
[7]; three freeze–thaw cycles
  effect of three freeze–thaw cycles on quantification in plasma: no effect
[8]
  effect on carrageenan-induced paw edema: significantly suppressed
